Source: PMC6628374, “Preparation and Identification of Novel Antihypertensive Peptides from the In Vitro Gastrointestinal Digestion of Marine Cobia Skin Hydrolysates” (Nutrients, 2019)
Where two headings read alike, the source gives them in different places. Each block holds one compound with its values, some of them ahead of it. Peptide text beside a SMILES is read from it.

Key:
Rabbit lung ACE = molecular target: T1, Rabbit lung ACE (Oryctolagus cuniculus, UniProt P12822); experiment: ACE inhibition assay (RP-HPLC, HHL substrate); assay type: biochemical; conditions: for Inhibition (%): at the peak's own peptide concentration; for IC50: identified peptides of peaks E6 to E9
T1 construct: Enzymes including pepsin, pancreatin and rabbit lung ACE were purchased from Sigma Chemical Co; purchased Sigma Chemical Co. (St. Louis, MO, USA); host or cells: rabbit lung (tissue-derived)
T1 sequence (P12822 34-1310): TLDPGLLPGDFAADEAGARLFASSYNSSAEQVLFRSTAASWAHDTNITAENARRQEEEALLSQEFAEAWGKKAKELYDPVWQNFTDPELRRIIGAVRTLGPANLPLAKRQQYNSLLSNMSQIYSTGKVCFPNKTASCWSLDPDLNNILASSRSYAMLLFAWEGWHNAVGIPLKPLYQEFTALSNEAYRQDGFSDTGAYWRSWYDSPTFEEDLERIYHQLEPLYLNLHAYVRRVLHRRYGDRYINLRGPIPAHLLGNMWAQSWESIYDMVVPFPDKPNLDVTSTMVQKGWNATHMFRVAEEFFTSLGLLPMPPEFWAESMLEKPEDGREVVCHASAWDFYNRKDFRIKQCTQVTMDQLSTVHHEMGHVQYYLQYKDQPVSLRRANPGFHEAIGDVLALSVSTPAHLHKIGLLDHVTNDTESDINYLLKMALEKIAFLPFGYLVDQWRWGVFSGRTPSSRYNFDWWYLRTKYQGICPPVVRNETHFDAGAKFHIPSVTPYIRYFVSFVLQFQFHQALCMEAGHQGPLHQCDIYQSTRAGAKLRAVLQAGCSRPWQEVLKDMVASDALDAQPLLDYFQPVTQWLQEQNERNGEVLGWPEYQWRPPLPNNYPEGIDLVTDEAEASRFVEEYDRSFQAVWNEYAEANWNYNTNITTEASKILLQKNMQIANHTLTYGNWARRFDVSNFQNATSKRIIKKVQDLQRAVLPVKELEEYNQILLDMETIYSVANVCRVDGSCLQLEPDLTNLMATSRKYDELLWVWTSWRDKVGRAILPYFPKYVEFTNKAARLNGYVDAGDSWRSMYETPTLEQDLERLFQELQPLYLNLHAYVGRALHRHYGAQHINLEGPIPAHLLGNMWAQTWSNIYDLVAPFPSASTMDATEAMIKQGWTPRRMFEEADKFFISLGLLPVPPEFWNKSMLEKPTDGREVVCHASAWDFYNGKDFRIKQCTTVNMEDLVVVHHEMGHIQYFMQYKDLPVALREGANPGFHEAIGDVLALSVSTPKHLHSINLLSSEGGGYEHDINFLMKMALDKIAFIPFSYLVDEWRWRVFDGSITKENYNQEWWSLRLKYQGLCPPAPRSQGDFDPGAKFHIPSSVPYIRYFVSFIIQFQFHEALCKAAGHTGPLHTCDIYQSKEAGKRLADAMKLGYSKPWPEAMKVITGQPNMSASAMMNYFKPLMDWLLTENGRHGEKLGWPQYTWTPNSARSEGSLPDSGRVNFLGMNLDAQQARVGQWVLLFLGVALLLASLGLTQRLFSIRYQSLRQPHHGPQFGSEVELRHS
Description: RP-HPLC was used to measure ACE inhibition by means of a method devised by Cushman and Cheung. The sample consisted of 15 mM HHL in Na-borate buffer (100 mM, pH 8.3) plus NaCl (300 mM). […] Equal volumes (75 μL) of the ACE solution and samples passed through a 5-kDa MWCO membrane were then incubated for 10 min at 37 °C. […] of the solution of HHL was then added and incubation was continued for a further 30 min. 1.0 N HCl (250 μL) was used to stop the reaction and 10 μL was injected into a Luna C18 column. […] Finally, inhibition activity was calculated using the following formula:Inhibition activity (%) = ((Ec - Es) / (Ec - Eb)) × 100where Ec is the absorbance when the buffer was added as control, Es is the absorbance when the sample was added to the reaction mixture (sample), and Eb is the absorbance when the stop solution was added before the reaction occurred (blank). […] The data used in this study were all averages of three readings or standard deviations (SDs).

ACE = conditions: cited from earlier work
ACE activity in plasma = tested on: ACE activity in plasma; design: method as in doi:10.1016/j.idairyj.2015.09.004; conditions: human volunteers, 100 mg oral, at 1.5 h; cited from earlier work
[1] = design: method as in doi:10.1016/j.idairyj.2015.09.004; conditions: human volunteers, 100 mg oral, after 30 min; cited from earlier work
[2] = molecular target: angiotensin I-converting enzyme (rabbit lung ACE) (rabbit) (UniProt P12822)
[3] = molecular target: angiotensin I-converting enzyme (rabbit lung ACE) (rabbit) (UniProt P12822); remark: listed apart in the source
[4] = RP-HPLC peaks of fraction E from PX-5G
[5] = equivalent of the μM value, read-out: IC50 (mg/mL) (converted)
[6] = peptides from Pacific cod skin gelatin hydrolysates (<1 kDa)
[7] = dipeptides from salmon muscle hydrolysate

Compound: Ala-Trp-Trp (peptide)
Inhibition (%) of ACE enzyme activity by peak E7 at 0.058 mg/mL peptide [2]: 81.1%
IC50 of inhibition of ACE enzyme activity (hippuric acid released from HHL, RP-HPLC, 37 °C, pH 8.3) [3]: 9.4 μM

Compound: G-A-S-S-G-M-P-G (GASSGMPG)
IC50 (ACE; [6]): 6.9 µM

Compound: G–R-G-S–V-P–A–Hyp–G-P
IC50 (ACE; peptide from squid skin collagen hydrolysate fraction <1 kDa): 47.8 µM

Compound: Ile-Trp-Trp (peptide)
Inhibition (%) of ACE enzyme activity by peak E8 at 0.028 mg/mL peptide [2]: 93.4%
IC50 of inhibition of ACE enzyme activity (hippuric acid released from HHL, RP-HPLC, 37 °C, pH 8.3) [3]: 0.51 μM

Compound: L-A-Y-A
IC50 (ACE; [6]): 14.5 µM

Compound: Leu-Trp
ACE-inhibition mode (ACE): noncompetitive inhibitors

Compound: Met-Trp
IC50 (ACE; [7]): 9.8 µM

Compound: Trp-Ala-Ala (peptide)
Inhibition (%) of ACE enzyme activity by peak E6 at 0.048 mg/mL peptide [2]: 41.9%
IC50 of inhibition of ACE enzyme activity (hippuric acid released from HHL, RP-HPLC, 37 °C, pH 8.3) [3]: 118 μM

Compound: Trp-Leu (peptide)
Inhibition (%) of ACE enzyme activity by peak E9 at 0.014 mg/mL peptide [2]: 42.3%
IC50 of inhibition of ACE enzyme activity (hippuric acid released from HHL, RP-HPLC, 37 °C, pH 8.3) [3]: 26.8 μM

Compound: Trp-Met
IC50 (ACE; [7]): 98.6 µM

Compound: Val-Arg-Tyr-Leu (VRYL; printed: Val-Arg-Tyr-Leu)
IC50 before hydrolysis with gastrointestinal proteases (ACE; peptide from Manchego cheese): 9 µg/mL

Second part, led by results:

Inhibition (%) (Rabbit lung ACE; [4]): 41.9%
IC50 (Rabbit lung ACE; [5]): 119 µM
IC50 (Rabbit lung ACE; read-out: IC50): 118 ± 2.8 µM
Compound: C[C@H](NC(=O)[C@H](C)NC(=O)[C@@H](N)Cc1c[nH]c2ccccc12)C(=O)O [Peak E6, Trp-Ala-Ala] (H-Trp-Ala-Ala-OH)

Inhibition (%) (Rabbit lung ACE; [4]): 81.1%
IC50 (Rabbit lung ACE; [5]): 9.4 µM
IC50 (Rabbit lung ACE; read-out: IC50): 9.4 ± 0.6 µM
Compound: C[C@H](N)C(=O)N[C@@H](Cc1c[nH]c2ccccc12)C(=O)N[C@@H](Cc1c[nH]c2ccccc12)C(=O)O [Peak E7, Ala-Trp-Trp] (H-Ala-Trp-Trp-OH)

Inhibition (%) (Rabbit lung ACE; [4]): 93.4%
IC50 (Rabbit lung ACE; [5]): 0.516 µM
IC50 (Rabbit lung ACE; read-out: IC50): 0.51 ± 0.1 µM
Compound: CC[C@H](C)[C@H](N)C(=O)N[C@@H](Cc1c[nH]c2ccccc12)C(=O)N[C@@H](Cc1c[nH]c2ccccc12)C(=O)O [Peak E8, Ile-Trp-Trp] (H-Ile-Trp-Trp-OH)

IER (inhibitory efficiency ratio) (Rabbit lung ACE; [4]): 3021.4 %/mg/mL
Inhibition (%) (Rabbit lung ACE; [4]): 42.3%
IC50 (Rabbit lung ACE; [5]): 26.8 µM
IC50 (Rabbit lung ACE; read-out: IC50): 26.8 ± 0.9 µM
Compound: CC(C)C[C@H](NC(=O)[C@@H](N)Cc1c[nH]c2ccccc12)C(=O)O [Peak E9, Trp-Leu] (H-Trp-Leu-OH; N-terminus and C-terminus assumed)
ACE-inhibition mode (ACE): noncompetitive inhibitors
IC50 (ACE): 29.9 to 34.1 µM
decrease of ACE activity in plasma (ACE activity in plasma): 16–22%
maximum plasma concentration [1]: 29 to 36 pmol/mL
